The record followed here is patent US9834558B2, “Substituted bridged urea analogs as sirtuin modulators” (GLAXOSMITHKLINE LLC, priority 2013, dated 2017).

The target in the first test is T1, SIRT1 (Homo sapiens, UniProt Q96EB6).
T1 sequence (Q96EB6 1-747): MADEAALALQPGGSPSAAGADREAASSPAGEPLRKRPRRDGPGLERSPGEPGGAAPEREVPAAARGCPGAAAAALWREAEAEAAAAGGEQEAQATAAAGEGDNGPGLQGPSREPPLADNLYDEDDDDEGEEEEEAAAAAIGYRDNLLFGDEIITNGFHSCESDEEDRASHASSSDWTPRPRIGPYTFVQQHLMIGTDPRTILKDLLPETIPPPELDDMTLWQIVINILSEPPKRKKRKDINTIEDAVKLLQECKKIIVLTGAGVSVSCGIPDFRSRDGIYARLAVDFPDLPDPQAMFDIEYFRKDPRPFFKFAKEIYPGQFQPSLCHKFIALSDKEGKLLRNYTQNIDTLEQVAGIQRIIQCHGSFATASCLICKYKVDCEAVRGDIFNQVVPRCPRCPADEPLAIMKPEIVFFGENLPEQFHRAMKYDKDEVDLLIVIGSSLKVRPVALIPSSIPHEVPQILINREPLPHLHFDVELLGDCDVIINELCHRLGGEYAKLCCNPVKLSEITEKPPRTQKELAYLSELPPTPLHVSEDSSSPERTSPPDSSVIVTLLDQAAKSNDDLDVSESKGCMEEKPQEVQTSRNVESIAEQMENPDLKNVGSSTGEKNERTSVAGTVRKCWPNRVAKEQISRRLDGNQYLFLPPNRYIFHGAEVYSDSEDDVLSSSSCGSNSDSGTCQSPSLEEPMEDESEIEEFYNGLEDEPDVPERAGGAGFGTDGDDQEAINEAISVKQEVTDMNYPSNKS
Description: Trp mass spectrometry assay of SIRT1 activation. The format is biochemical. The settings on record: Trp mass spectrometry assay; concentration of test compound giving 150% activation of SIRT1. The essentials: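 Activation read-out: mass-spec measurement of O-acetyl-ADP-ribose or deacetylated Trp peptide versus compound-free controls, giving EC1.5 and Percent Maximum Activation. Reactions ran 25 min at 25 °C, pH 7.5, with 120 μM βNAD+, 0.5 μM acetylated p53-derived peptide and 10 nM His-tagged SIRT1.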
For the compound `O=C(Nc1ccccn1)N1c2nc(-c3ccc(Cl)c(Cl)c3)ccc2N2CC[C@H]1C2` [Example 332], the “Tryp AVG EC1.5 (μM)” value is reported as “A (A (EC1.5<1 μM))”.

With `O=C(Nc1ccccn1)N1c2nc(-c3cc(F)cc(C(F)(F)F)c3)ccc2N2CC[C@H]1C2` [Example 333], the “Tryp AVG EC1.5 (μM)” value is “A (A (EC1.5<1 μM))”.

Regarding `O=C(Nc1ccccn1)N1c2nc(-c3cccc(C(F)(F)F)c3F)ccc2N2CC[C@H]1C2` [Example 334], the “Tryp AVG EC1.5 (μM)” value is reported as “B (B (EC1.5 1-25 μM))”.

Regarding `O=C(Nc1cccc(C2(C(F)(F)F)N=N2)c1)N1c2nc(-c3cccc(C(F)(F)F)c3)ccc2N2CCC[C@H]1C2` [Example 335], the “Tryp AVG EC1.5 (μM)” value was “A (A (EC1.5<1 μM))”.

For `O=C(Nc1ccccn1)N1c2nc(-c3cccc(C(F)(F)F)n3)ccc2N2CC[C@H]1C2` [Example 336], the “Tryp AVG EC1.5 (μM)” value was “B (B (EC1.5 1-25 μM))”.

With `O=C(Nc1ccncn1)N1c2nc(-c3cccc(C(F)(F)F)n3)ccc2N2CC[C@H]1C2` [Example 337], the “Tryp AVG EC1.5 (μM)” value was “B (B (EC1.5 1-25 μM))”.

Consider `O=C(Nc1cnccn1)N1c2nc(-c3cccc(C(F)(F)F)n3)ccc2N2CC[C@H]1C2` [Example 338], for which the “Tryp AVG EC1.5 (μM)” value is recorded as “B (B (EC1.5 1-25 μM))”.

As to `COc1cc(NC(=O)N2c3nc(-c4cccc(C(F)(F)F)n4)ccc3N3CC[C@H]2C3)ncn1` [Example 339], the “Tryp AVG EC1.5 (μM)” value is listed as “B (B (EC1.5 1-25 μM))”.

For `O=C(Nc1ccc(F)cn1)N1c2nc(-c3cccc(C(F)(F)F)n3)ccc2N2CC[C@H]1C2` [Example 340], the “Tryp AVG EC1.5 (μM)” value was “B (B (EC1.5 1-25 μM))”.

Take `N#Cc1cc(-c2ccc3c(n2)N(C(=O)Nc2ccccn2)[C@H]2CCN3C2)ccc1F` [Example 341]: the “Tryp AVG EC1.5 (μM)” value is “A (A (EC1.5<1 μM))”.

`COc1ccc(-c2ccc3c(n2)N(C(=O)Nc2ccccn2)[C@H]2CCN3C2)cn1` [Example 342]: the “Tryp AVG EC1.5 (μM)” value was “B (B (EC1.5 1-25 μM))”.

With `CN(C)Cc1cccc(-c2ccc3c(n2)N(C(=O)Nc2ccccn2)[C@H]2CCN3C2)c1` [Example 343], the “Tryp AVG EC1.5 (μM)” value is listed as “B (B (EC1.5 1-25 μM))”.

Turning to `O=C(Nc1ccccn1)N1c2nc(-c3cc(F)cc(F)c3)ccc2N2CC[C@H]1C2` [Example 344], the “Tryp AVG EC1.5 (μM)” value is given as “A (A (EC1.5<1 μM))”.

With `CN(C)c1ccc(-c2ccc3c(n2)N(C(=O)Nc2ccccn2)[C@H]2CCN3C2)cn1` [Example 345], the “Tryp AVG EC1.5 (μM)” value is listed as “B (B (EC1.5 1-25 μM))”.

Turning to `COc1cncc(-c2ccc3c(n2)N(C(=O)Nc2ccccn2)[C@H]2CCN3C2)c1` [Example 346], the “Tryp AVG EC1.5 (μM)” value was “B (B (EC1.5 1-25 μM))”.

For `O=C(Nc1ccccn1)N1c2nc(-c3ccc(-c4nnn[nH]4)cc3)ccc2N2CC[C@H]1C2` [Example 347], the “Tryp AVG EC1.5 (μM)” value was “A (A (EC1.5<1 μM))”.

In the case of `N#Cc1cccc(-c2ccc3c(n2)N(C(=O)Nc2ccccn2)[C@H]2CCCN3C2)c1` [Example 348], the “Tryp AVG EC1.5 (μM)” value is given as “A (A (EC1.5<1 μM))”.

Turning to `Cn1cc(-c2ccc3c(n2)N(C(=O)Nc2ccccn2)[C@H]2CCN3C2)cn1` [Example 349], the “Tryp AVG EC1.5 (μM)” value is reported as “B (B (EC1.5 1-25 μM))”.

On to `N#Cc1cccc(-c2ccc3c(n2)N(C(=O)Nc2cccnc2)[C@H]2CCCN3C2)c1` [Example 350], for which the “Tryp AVG EC1.5 (μM)” value is recorded as “A (A (EC1.5<1 μM))”.

For `N#Cc1cccc(-c2ccc3c(n2)N(C(=O)Nc2cnccn2)[C@H]2CCCN3C2)c1` [Example 351], the “Tryp AVG EC1.5 (μM)” value is given as “A (A (EC1.5<1 μM))”.

Regarding `N#Cc1cccc(-c2ccc3c(n2)N(C(=O)Nc2ccncn2)[C@H]2CCCN3C2)c1` [Example 352], the “Tryp AVG EC1.5 (μM)” value is listed as “A (A (EC1.5<1 μM))”.

For `N#Cc1cccc(-c2ccc3c(n2)N(C(=O)Nc2cncc(F)c2)[C@H]2CCCN3C2)c1` [Example 353], the “Tryp AVG EC1.5 (μM)” value was “A (A (EC1.5<1 μM))”.

For the compound `O=C(Nc1ccccn1)N1c2nc(-c3cccc(CC(O)CO)c3)ccc2N2CC[C@H]1C2` (stereo partly shown) [Example 354], the “Tryp AVG EC1.5 (μM)” value is reported as “A (A (EC1.5<1 μM))”.

`COc1cc(NC(=O)N2c3nc(-c4cccc(CC(O)CO)c4)ccc3N3CC[C@H]2C3)ncn1` (stereo partly shown) [Example 355]: the “Tryp AVG EC1.5 (μM)” value is given as “B (B (EC1.5 1-25 μM))”.

As for `C[C@@H]1CCN(C)c2ccc(-c3cccc(CC(O)CO)c3)nc2N1C(=O)Nc1ccc(F)cn1` (stereo partly shown) [Example 356], the “Tryp AVG EC1.5 (μM)” value is recorded as “A (A (EC1.5<1 μM))”.

For the compound `O=C(Nc1ccncc1F)N1c2nc(-c3cccc(CC(O)CO)c3)ccc2N2CC[C@H]1C2` (stereo partly shown) [Example 357], the “Tryp AVG EC1.5 (μM)” value is recorded as “B (B (EC1.5 1-25 μM))”.

On to `COc1cc(NC(=O)N2c3nc(-c4ccnc(F)c4)ccc3N3CC[C@H]2C3)ncn1` [Example 358], for which the “Tryp AVG EC1.5 (μM)” value is “C (C (EC1.5>25 μM))”.

As for `O=C(Nc1ccc(F)cn1)N1c2nc(N3CCCC(C(F)(F)F)C3)ccc2N2CCC[C@H]1C2` (stereo partly shown) [Example 359], the “Tryp AVG EC1.5 (μM)” value was “A (A (EC1.5<1 μM))”.

In the case of `O=C(Nc1ccncc1)N1c2nc(N3CCCC(C(F)(F)F)C3)ccc2N2CCC[C@H]1C2` (stereo partly shown) [Example 360], the “Tryp AVG EC1.5 (μM)” value was “A (A (EC1.5<1 μM))”.

Regarding `O=C(Nc1cc(O)ncn1)N1c2nc(N3CCCC(C(F)(F)F)C3)ccc2N2CCC[C@H]1C2` (stereo partly shown) [Example 361], the “Tryp AVG EC1.5 (μM)” value is on record as “A (A (EC1.5<1 μM))”.

For `O=C(Nc1ccc(F)cn1)N1c2nc(N3CCCC(C(F)(F)F)C3)ccc2N2CCC[C@@H]1C2` (stereo partly shown) [Example 362], the “Tryp AVG EC1.5 (μM)” value was “C (C (EC1.5>25 μM))”.

Still in this test, the particulars now being: Trp mass spectrometry assay; percent maximum fold activation of SIRT1; read-out: Tryp % Fold Act.
In the case of `C[C@@H]1CCN(C)c2ccc(-c3cccc(CC(O)CO)c3)nc2N1C(=O)Nc1ccc(F)cn1` (stereo partly shown) [Example 356], the Emax was greater than 150%.

Still in this test, the particulars now being: Trp peptide substrate; concentration giving 150% activation of SIRT1.
Consider `CC(=O)c1sc(NC(=O)N2c3nc(-c4cccc(C(F)(F)F)c4)ccc3N3CC[C@H]2C3)nc1C` [Example 75], for which the “Tryp AVG EC1.5 (μM)” value was “A (A (EC1.5<1 μM))”.

For the compound `COc1ccc(C)nc1NC(=O)N1c2nc(-c3cccc(C(F)(F)F)c3)ccc2N2CC[C@H]1C2` [Example 77], the “Tryp AVG EC1.5 (μM)” value is listed as “B (B (EC1.5 1-25 μM))”.

Regarding `O=C(Nc1cccc2nccnc12)N1c2nc(-c3cccc(C(F)(F)F)c3)ccc2N2CC[C@H]1C2` [Example 83], the “Tryp AVG EC1.5 (μM)” value is on record as “A (A (EC1.5<1 μM))”.

Take `Cn1ncc2cc(NC(=O)N3c4nc(-c5cccc(C(F)(F)F)c5)ccc4N4CC[C@H]3C4)ccc21` [Example 87]: the “Tryp AVG EC1.5 (μM)” value is given as “A (A (EC1.5<1 μM))”.

Take `O=C(Nc1nc2ccccc2s1)N1c2nc(-c3cccc(C(F)(F)F)c3)ccc2N2CC[C@H]1C2` [Example 90]: the “Tryp AVG EC1.5 (μM)” value is reported as “A (A (EC1.5<1 μM))”.

In the case of `Cc1nc(NC(=O)N2c3nc(-c4cccc(C(F)(F)F)c4)ccc3N3CC[C@H]2C3)nc2c1CCC2` [Example 91], the “Tryp AVG EC1.5 (μM)” value was “B (B (EC1.5 1-25 μM))”.

As for `Cc1nn(C)cc1NC(=O)N1c2nc(-c3cccc(C(F)(F)F)c3)ccc2N2CC[C@H]1C2` [Example 92], the “Tryp AVG EC1.5 (μM)” value is listed as “B (B (EC1.5 1-25 μM))”.

`O=C1OCc2ccc(NC(=O)N3c4nc(-c5cccc(C(F)(F)F)c5)ccc4N4CC[C@H]3C4)cc21` [Example 93]: the “Tryp AVG EC1.5 (μM)” value was “A (A (EC1.5<1 μM))”.

Regarding `Cc1cc(C(F)(F)F)nc(NC(=O)N2c3nc(-c4cccc(C(F)(F)F)c4)ccc3N3CC[C@H]2C3)n1` [Example 94], the “Tryp AVG EC1.5 (μM)” value is “B (B (EC1.5 1-25 μM))”.

Take `O=C(Nc1ccc2c(c1)OCCCO2)N1c2nc(-c3cccc(C(F)(F)F)c3)ccc2N2CC[C@H]1C2` [Example 95]: the “Tryp AVG EC1.5 (μM)” value is recorded as “A (A (EC1.5<1 μM))”.

Turning to `O=C(Nc1ccncc1Cl)N1c2nc(-c3cccc(C(F)(F)F)c3)ccc2N2CC[C@H]1C2` [Example 96], the “Tryp AVG EC1.5 (μM)” value is given as “B (B (EC1.5 1-25 μM))”.

`O=C(Nc1ccncn1)N1c2nc(C3CCCC(C(F)(F)F)C3)ccc2N2CC[C@H]1C2` (stereo partly shown) [Example 98]: the “Tryp AVG EC1.5 (μM)” value is reported as “B (B (EC1.5 1-25 μM))”.

As to `O=C(Nc1cccnc1)N1c2nc(C3CCCC(C(F)(F)F)C3)ccc2N2CC[C@H]1C2` (stereo partly shown) [Example 99], the “Tryp AVG EC1.5 (μM)” value was “A (A (EC1.5<1 μM))”.

As for `Cc1cnccc1NC(=O)N1c2nc(C3CCCC(C(F)(F)F)C3)ccc2N2CC[C@H]1C2` (stereo partly shown) [Example 100], the “Tryp AVG EC1.5 (μM)” value is “B (B (EC1.5 1-25 μM))”.

Regarding `O=C(Nc1cnccn1)N1c2nc(-c3cccc(Cl)c3)ccc2N2CC[C@H]1C2` [Example 101], the “Tryp AVG EC1.5 (μM)” value is “A (A (EC1.5<1 μM))”.

`Cc1nc(NC(=O)N2c3nc(-c4cccc(Cl)c4)ccc3N3CC[C@H]2C3)sc1C` [Example 102]: the “Tryp AVG EC1.5 (μM)” value is given as “A (A (EC1.5<1 μM))”.

Take `COc1cc(NC(=O)N2c3nc(-c4cccc(Cl)c4)ccc3N3CC[C@H]2C3)nc(OC)n1` [Example 103]: the “Tryp AVG EC1.5 (μM)” value is “B (B (EC1.5 1-25 μM))”.

`COc1cc(NC(=O)N2c3nc(-c4cccc(Cl)c4)ccc3N3CC[C@H]2C3)ncn1` [Example 104]: the “Tryp AVG EC1.5 (μM)” value is “B (B (EC1.5 1-25 μM))”.

In the case of `Cc1cc(C)nc(NC(=O)N2c3nc(-c4cccc(Cl)c4)ccc3N3CC[C@H]2C3)c1` [Example 105], the “Tryp AVG EC1.5 (μM)” value is recorded as “B (B (EC1.5 1-25 μM))”.

On to `Cc1cccnc1NC(=O)N1c2nc(-c3cccc(Cl)c3)ccc2N2CC[C@H]1C2` [Example 106], for which the “Tryp AVG EC1.5 (μM)” value is “C (C (EC1.5>25 μM))”.
